According to US20250353841A1 (BIOGEN MA INC., priority 2022, published 2025):

Tested on: mutant Huntington (HTT) protein
Experiment: HTT Mutant HTRF iPSC assay (mHTT protein lowering)
Format: cell-based
Settings: human iPSC derived from a HTT patient with a poly-Q49 mutation

Structure (SMILES)	IC50
Cc1cn2nc(-c3cc(F)c4nc(N5CCC(CN(C)C)C5)oc4c3)cc(C)c2n1 (stereo not shown) [Compound 491, 1-(1-(6-(2,8-dimethylimidazo[1,2-b]pyridazin-6-yl)-4-fluorobenzo[d]oxazol-2-yl)pyrrolidin-3-yl)-N,N-dimethylmethanamine]	100 to 1000 nM
CCC1(N(C)C)CCN(c2nc3c(F)cc(-c4cc(C)c5nc(C)cn5n4)cc3o2)CC1 [Compound 492, 1-(6-(2,8-dimethylimidazo[1,2-b]pyridazin-6-yl)-4-fluorobenzo[d]oxazol-2-yl)-4-ethyl-N,N-dimethylpiperidin-4-amine]	< 100 nM
Cc1cn2nc(-c3cc(F)c4nc(N5CCC56CCN(C)CC6)oc4c3)cc(C)c2n1 [Compound 493, 6-(2,8-dimethylimidazo[1,2-b]pyridazin-6-yl)-4-fluoro-2-(7-methyl-1,7-diazaspiro[3.5]nonan-1-yl)benzo[d]oxazole]	100 to 1000 nM
Cc1cn2nc(-c3cc(F)c4nc(N5CCC(N6CCC6)CC5)oc4c3)cc(C)c2n1 [Compound 494, 2-(4-(azetidin-1-yl)piperidin-1-yl)-6-(2,8-dimethylimidazo[1,2-b]pyridazin-6-yl)-4-fluorobenzo[d]oxazole]	100 to 1000 nM
Cc1cn2nc(-c3cc(F)c4nc(N5CCC(N(C)C)CC5)oc4c3)cc(C(F)F)c2n1 [Compound 495, 1-(6-(8-(difluoromethyl)-2-methylimidazo[1,2-b]pyridazin-6-yl)-4-fluorobenzo[d]oxazol-2-yl)-N,N-dimethylpiperidin-4-amine]	< 100 nM
Cc1nc2c(C)cc(-c3cc(F)c4nc(N5CCC(N(C)C)CC5)oc4c3)nn2n1 [Compound 496, 1-(6-(2,8-dimethyl-[1,2,4]triazolo[1,5-b]pyridazin-6-yl)-4-fluorobenzo[d]oxazol-2-yl)-N,N-dimethylpiperidin-4-amine]	100 to 1000 nM
Cc1cn2nc(-c3cc(F)c4nc(N5CCC(N(C)C)CC5)oc4c3)cc2c(C)n1 [Compound 497, 1-(6-(4,6-dimethylpyrazolo[1,5-a]pyrazin-2-yl)-4-fluorobenzo[d]oxazol-2-yl)-N,N-dimethylpiperidin-4-amine]	100 to 1000 nM
Cc1nc2c(C)cc(-c3cc(F)c4nc(N5CCC6(CCN(C)CC6)C5)oc4c3)nn2n1 [Compound 498, 6-(2,8-dimethyl-[1,2,4]triazolo[1,5-b]pyridazin-6-yl)-4-fluoro-2-(8-methyl-2,8-diazaspiro[4.5]decan-2-yl)benzo[d]oxazole]	100 to 1000 nM
Cc1cn2nc(-c3cc(F)c4nc(N5CCC6(CCN(C)CC6)C5)oc4c3)cc2c(C)n1 [Compound 499, 6-(4,6-dimethylpyrazolo[1,5-a]pyrazin-2-yl)-4-fluoro-2-(8-methyl-2,8-diazaspiro[4.5]decan-2-yl)benzo[d]oxazole]	100 to 1000 nM
Cc1cn2nc(-c3cc(F)c4nc(N5CCCC(N(C)C)C5)oc4c3)cc(C)c2n1 (stereo not shown) [Compound 500, 1-(6-(2,8-dimethylimidazo[1,2-b]pyridazin-6-yl)-4-fluorobenzo[d]oxazol-2-yl)-N,N-dimethylpiperidin-3-amine]	100 to 1000 nM
Cc1cn2nc(-c3cc(F)c4nc(N5CCC6(CCN(C)C6)C5)oc4c3)cc(C)c2n1 (stereo not shown) [Compound 501, 6-(2,8-dimethylimidazo[1,2-b]pyridazin-6-yl)-4-fluoro-2-(7-methyl-2,7-diazaspiro[4.4]nonan-2-yl)benzo[d]oxazole]	100 to 1000 nM
CCN1CCC(N(C)c2nc3c(F)cc(-c4cc(C)c5nc(C)cn5n4)cc3o2)CC1 [Compound 502, 6-(2,8-dimethylimidazo[1,2-b]pyridazin-6-yl)-N-(1-ethylpiperidin-4-yl)-4-fluoro-N-methylbenzo[d]oxazol-2-amine]	< 100 nM
CCN1CCC(N(C)c2nc3c(F)cc(-c4cc(C)c5nc(C)cn5n4)cc3o2)CC1C (stereo not shown) [Compound 503, 6-(2,8-dimethylimidazo[1,2-b]pyridazin-6-yl)-N-(1-ethyl-2-methylpiperidin-4-yl)-4-fluoro-N-methylbenzo[d]oxazol-2-amine]	< 100 nM
Cc1cn2nc(-c3cc(F)c4nc(N(C)C5CC(C)(C)NC(C)(C)C5)oc4c3)ccc2n1 [Compound 504, 4-fluoro-N-methyl-6-(2-methylimidazo[1,2-b]pyridazin-6-yl)-N-(2,2,6,6-tetramethylpiperidin-4-yl)benzo[d]oxazol-2-amine]	100 to 1000 nM
COc1cc(-c2cc(F)c3nc(N4CCC5(CCN(C)CC5)C4)oc3c2)nn2nc(C)nc12 [Compound 505, 4-fluoro-6-(8-methoxy-2-methyl-[1,2,4]triazolo[1,5-b]pyridazin-6-yl)-2-(8-methyl-2,8-diazaspiro[4.5]decan-2-yl)benzo[d]oxazole]	< 100 nM
Cc1cn2nc(-c3cc(F)c4nc(N5CCC(N(C)C)CC5)oc4c3)cc(C(F)(F)F)c2n1 [Compound 506, 1-(4-fluoro-6-(2-methyl-8-(trifluoromethyl)imidazo [1,2-b]pyridazin-6-yl)benzo[d]oxazol-2-yl)-N,N-dimethylpiperidin-4-amine]	< 100 nM
Cc1cn2nc(-c3cc(F)c4nc(N5CCC6(CCN(C)CC6)C5)oc4c3)cc(C(F)F)c2n1 [Compound 507, 6-(8-(difluoromethyl)-2-methylimidazo[1,2-b]pyridazin-6-yl)-4-fluoro-2-(8-methyl-2,8-diazaspiro[4.5]decan-2-yl)benzo[d]oxazole]	< 100 nM

Structure (SMILES)	IC50
Cc1cn2nc(-c3cc(F)c4nc(N5CCC6(CCCN6C)CC5)oc4c3)cc(C)c2n1 [Compound 514, 6-(2,8-dimethylimidazo[1,2-b]pyridazin-6-yl)-4-fluoro-2-(1-methyl-1,8-diazaspiro[4.5]decan-8-yl)benzo[d]oxazole]	< 100 nM
Cc1cn2nc(-c3cc(F)c4nc(N5CCC6(CCN(C)CC6)CC5)oc4c3)cc(C)c2n1 [Compound 515, 6-(2,8-dimethylimidazo[1,2-b]pyridazin-6-yl)-4-fluoro-2-(9-methyl-3,9-diazaspiro[5.5]undecan-3-yl)benzo[d]oxazole]	100 to 1000 nM
Cc1cn2nc(-c3cc(F)c4nc(N5CCC6(CCN(C)CC6)C5)oc4c3)cc(C(F)(F)F)c2n1 [Compound 520, 4-fluoro-6-(2-methyl-8-(trifluoromethyl)imidazo [1,2-b]pyridazin-6-yl)-2-(8-methyl-2,8-diazaspiro[4.5]decan-2-yl)benzo[d]oxazole]	< 100 nM
Cc1cn2cc(-c3cc(F)c4oc(N(C)CCN5CCOCC5)nc4c3)cc(F)c2n1 [Compound 532, 7-fluoro-5-(8-fluoro-2-methylimidazo[1,2-a]pyridin-6-yl)-N-methyl-N-(2-morpholinoethyl)benzo [d]oxazol-2-amine]	1000 to 9000 nM
CCN1CCC(N(C)c2nc3cc(-c4cc(C)c5nc(C)cn5n4)cc(F)c3o2)CC1C [Compound 533, rel-5-(2,8-dimethylimidazo[1,2-b]pyridazin-6-yl)-N-((2S,4S)-1-ethyl-2-methylpiperidin-4-yl)-7-fluoro-N-methylbenzo[d]oxazol-2-amine]	1000 to 9000 nM
Cc1cn2cc(-c3cc(Cl)c4oc(C5CCNCC5)nc4c3)cc(F)c2n1 [Compound 534, 7-chloro-5-(8-fluoro-2-methylimidazo[1,2-a]pyridin-6-yl)-2-(piperidin-4-yl)benzo[d]oxazole]	1000 to 9000 nM
Cc1cn2nc(-c3cc(Cl)c4oc(C5CCNCC5)nc4c3)cc(C)c2n1 [Compound 535, 7-chloro-5-(2,8-dimethylimidazo[1,2-b]pyridazin-6-yl)-2-(4-piperidyl)-1,3-benzoxazole]	1000 to 9000 nM
Cc1cn2cc(-c3cc(OC(F)F)c4nc(C5CCNCC5)cn4c3)cc(F)c2n1 [Compound 536, 8-(difluoromethoxy)-8′-fluoro-2′-methyl-2-(piperidin-4-yl)-6,6′-biimidazo[1,2-a]pyridine]	100 to 1000 nM
Cc1cn2nc(-c3cc(OC(F)F)c4nc(C5CCNCC5)cn4c3)cc(C)c2n1 [Compound 537, 6-[8-(difluoromethoxy)-2-(4-piperidyl)imidazo[1,2-a]pyridin-6-yl]-2,8-dimethyl-imidazo[1,2-b]pyridazine]	< 100 nM
COc1cc(-c2cc(C)c3nc(C)cn3n2)cn2cc(C3CCNCC3)nc12 [Compound 538, 6-(8-methoxy-2-(piperidin-4-yl)imidazo[1,2-a]pyridin-6-yl)-2,8-dimethylimidazo[1,2-b]pyridazine]	< 100 nM
COc1cc(-c2cc(C)c3nc(C)cn3n2)cn2cc([C@H]3[C@@H]4CN(C)C[C@@H]43)nc12 [Compound 539, 6-[8-methoxy-2-[(1S,5R)-3-methyl-3-azabicyclo[3.1.0]hexan-6-yl]imidazo[1,2-a]pyridin-6-yl]-2,8-dimethyl-imidazo[1,2-b]pyridazine]	< 100 nM
COc1cc(-c2cc(C(F)F)c3nc(C)cn3n2)cn2cc([C@H]3[C@@H]4CN(C)C[C@@H]43)nc12 [Compound 540, 8-(difluoromethyl)-6-[8-methoxy-2-[3-methyl-3-azabicyclo[3.1.0]hexan-6-yl]imidazo[1,2-a]pyridin-6-yl]-2-methyl-imidazo[1,2-b]pyridazine]	< 100 nM
COc1cc(-c2cc(C)c3nc(C)nn3n2)cn2cc([C@H]3[C@@H]4CN(C)C[C@@H]43)nc12 [Compound 541, 6-(8-methoxy-2-((1R,5S,6r)-3-methyl-3-azabicyclo[3.1.0]hexan-6-yl)imidazo[1,2-a]pyridin-6-yl)-2,8-dimethyl-[1,2,4]triazolo[1,5-b]pyridazine]	100 to 1000 nM
COc1cc(-c2cc3c(C)nc(C)cn3n2)cn2cc([C@H]3[C@@H]4CN(C)C[C@@H]43)nc12 [Compound 542, 2-(8-methoxy-2-((1R,5S,6r)-3-methyl-3-azabicyclo[3.1.0]hexan-6-yl)imidazo[1,2-a]pyridin-6-yl)-4,6-dimethylpyrazolo[1,5-a]pyrazine]	100 to 1000 nM
COc1cc(-c2cc(F)c3nn(C)cc3c2)cc2cn(C3CCNCC3)nc12 [Compound 543, 7-fluoro-7′-methoxy-2-methyl-2′-(piperidin-4-yl)-2H,2′H-5,5′-biindazole]	1000 to 9000 nM
COc1cc(-c2cc(C)c3nn(C)cc3c2)cc2cn(C3CCNCC3)nc12 [Compound 544, 7-methoxy-2′,7′-dimethyl-2-(piperidin-4-yl)-2H,2′H-5,5′-biindazole]	1000 to 9000 nM
COc1cc(-c2cc(F)c3nc(C)cn3c2)cc2cn(C3CCNCC3)nc12 [Compound 545, 5-(8-fluoro-2-methylimidazo[1,2-a]pyridin-6-yl)-7-methoxy-2-(piperidin-4-yl)-2H-indazole]	1000 to 9000 nM
